Data as given in patent US20120309734A1, “COMBRETASTATIN DERIVATIVES AND USES THEREFOR” (priority 2009, published 2012).

Columns and labels:
[1] = system: HL-60 parental; assay: Alamar Blue cell viability assay; type: cell-based; conditions: Homo sapiens, 72 h
Protocol: Cells were exposed to multiple concentrations of the indicated compound for 72 h. Cell viability was assessed using the Alamar blue assay and respective IC50 values were calculated. The resistance factor (RF) was calculated by dividing the IC50 of the resistant cell line/IC50 of the parental cell line.
A2780-parental and A2780-ADR resistant cells were provided by the Beatson Institute of Cancer Research, Glasgow. […] All cells were cultured in RPMI-1640 Glutamax medium supplemented with 10% FCS media, 100 units/ml penicillin and 100 μg/mIstreptomycin. Cells were maintained at 37° C. in 5% CO2 in a humidified incubator.
The reduction of Alamar Blue is proportional to the number of viable cells. Cells (200 μl) were plated in triplicate in a 96-well plates (K562, 100,000/ml; HL-60, 300,000/ml; A-2780 50,000/ml). A-2780 cells were plated 24 h prior to treatment. Suspension cells were plated in the log phase of growth and treated immediately. The cells were then treated with either medium alone, vehicle (1% ethanol v/v or 0.1% DMSO v/v) or with a range of concentrations of drug [0.001-10 μM]. After 72 h, Alamar Blue was added to each well (10% of final volume) and fluorescence was read using a 96-well fluorometer with excitation at 530 nm and emission of 590 nm. The blank solution consisted of medium and Alamar Blue and the blank solution was used to calibrate the spectrophotometer to zero absorbance. The relative cell viability (%) related to control wells and was calculated by [A]test/[A]control×100 where [A]test is the absorbance of the drug treated cells and [A]control the absorbance of the vehicle control treated cells. Dose response curves were plotted and IC50 values (concentration of drug resulting in 50% reduction in cell survival) were obtained using the commercial software package Prism (GraphPad Software, Inc., La Jolla, USA). Experiments were performed in triplicate on at least three separate occasions.

[2] = system: HUVEC cells; assay: HUVEC DNA content by flow cytometry (PI); type: cell-based, human; conditions: 24 h
Protocol: FIG. 8 illustrates the anti-proliferative response of endothelial cells to compound 4. HUVEC cells were treated with vehicle (0.5% (v/v) ethanol) or the indicated concentrations of 4 for 24 h and fixed by a drop-wise addition of ice-cold ethanol. Cells were then stained with 0.15 mg/ml propidium iodide (PI) and their DNA content assessed using a FACSCalibur flow cytometer (Becton Dickinson, San Jose, Calif., USA). Data collections (10,000 events per sample) were gated to exclude cell debris and cell aggregates. Analysis of data was performed using the CellQuest software (Becton Dickinson). PI fluorescence was proportional to the amount of DNA present in each entity and therefore indicated the stage of the cell cycle. Cells in the subG0/G1 phase (<2N DNA) were deemed apoptotic, while cells with 4N quantities of DNA were considered to be in the G2/M phase of the cell cycle. Values represent the mean±S.E.M for three independent experiments.

[3] = system: HUVECs; assay: VEGF-stimulated transwell migration assay; type: cell-based; conditions: Homo sapiens, HUVEC; 50 nM, 6 h, 10 ng/ml VEGF
Protocol: This modified transwell migration assay consisted of an upper and a lower chamber separated by a membrane. Migration of HUVECs from the upper to the lower chamber was stimulated by addition of VEGF to the lower chamber. The effect of compound 4 on this migration was determined by its addition along with VEGF into the lower chamber. Migration was expressed as a percentage of migration in control chambers treated with the vehicle (100%). HUVECs 10,000 cells in […] medium were seeded onto fibronectin-coated […] transwell inserts in 24-well plates containing medium. HUVEC migration was stimulated by the addition of 10 ng/ml VEGF to the lower wells. Vehicle (0.5% (v/v) ethanol) or compound 4 (50 nM) were also added to the lower wells. After 6 h, the upper surfaces of the inserts were swabbed to remove non-migrated cells. Filters containing the migrated cells were stained with 0.5% toulidine blue 0 and 0.5% sodium tetraborate. The cells were solubilised in 0.2% (w/v) SDS in 20 mM Tris-HCl, pH 7.7 and staining quantified as absorbance at 650 nm. […] P-values were determined using a two-tailed Student's paired t-test. A value of P<0.05 was considered to be significant.

[4] = system: breast carcinoma MDA-MB-231 cells; assay: Transwell migration assay; type: cell-based, human; conditions: 50 nM, 6 h
Protocol: FIG. 12 illustrates the migration of breast carcinoma MDA-MB-231 cells across transwell filters in the presence of vehicle (0.5% (v/v) ethanol) or 50 nM compound 4. Migration was expressed as a percentage of migration of vehicle-treated cells (100%). MDA-MB-231 cells (cultured as described supra) were seeded at a density of 2.5×10^4 cells/well onto 24-well Falcon migration inserts (8 μm pore size) in serum-free medium. Inserts were placed into Falcon companion plates containing 20% FBS and either vehicle (0.5% (v/v) ethanol) or 50 nM compound 4 and incubated for 6 h. The upper surfaces of the inserts were swabbed to remove non-migrated cells. Migrated cells on the underside of the membrane were fixed in methanol, stained with Mayers Hematoxylin, dehydrated in methanol and mounted on a glass slide. The number of cells in 5 fields at 10× magnification was counted. […] P-values were determined using a two-tailed Student's paired t-test. A value of P<0.05 was considered to be significant. Incubation for 6 h with compound 4 prevented MDA-MB-231 cell migration by 95.7% (***P<0.0001).

[5] = system: K-562; assay: NCI60 cell line screen; conditions: Homo sapiens, K562
[6] = system: NCI-H226; assay: NCI60 cell line screen; conditions: Homo sapiens
[7] = system: COLO 205; assay: NCI60 cell line screen; conditions: Homo sapiens
[8] = system: U251; assay: NCI60 cell line screen; conditions: Homo sapiens, U-251
[9] = system: LOX IMVI; assay: NCI60 cell line screen; conditions: Homo sapiens
[10] = system: M14; assay: NCI60 cell line screen; conditions: Homo sapiens
[11] = system: SK-MEL-28; assay: NCI60 cell line screen; conditions: Homo sapiens
[12] = system: SK-MEL-5; assay: NCI60 cell line screen; conditions: Homo sapiens
[13] = system: UACC-62; assay: NCI60 cell line screen; conditions: Homo sapiens
[14] = system: OVCAR-4; assay: NCI60 cell line screen; conditions: Homo sapiens
[15] = system: SK-OV-3; assay: NCI60 cell line screen; conditions: Homo sapiens
[16] = system: RXF 393; assay: NCI60 cell line screen; conditions: Homo sapiens
[17] = system: TK-10; assay: NCI60 cell line screen; conditions: Homo sapiens
[18] = system: PC-3; assay: NCI60 cell line screen; conditions: Homo sapiens
[19] = system: DU-145; assay: NCI60 cell line screen; conditions: Homo sapiens
[20] = system: NCI/ADR-RES; assay: NCI60 cell line screen; conditions: Homo sapiens
[21] = Stability by HPLC at three pH values; type: physicochemical; conditions: for half-life: all pH values (4, 7.4, 9), HPLC; for stability at varying pH: pH 4, 7.4, 9, HPLC
Protocol: The stability of β-lactam compounds 4, 8 and 12 was assessed by HPLC at three different pH values. […] The half-lives of 8 and 12 were both greater than 24 hours at all pH values. The stability of three ester prodrug derivatives of 4, i.e. 29, 30 and 31, was also assessed (FIG. 6).

[22] = system: HOP-62; assay: NCI60 cell line screen; conditions: Homo sapiens
[23] = system: MALME-3M; assay: NCI60 cell line screen; conditions: Homo sapiens

SMILES	GI50 [5] [nM]	GI50 [6] [nM]	GI50 [7] [nM]	GI50 [8] [nM]	GI50 [9] [nM]	GI50 [10] [nM]	GI50 [11] [nM]	GI50 [12] [nM]	GI50 [13] [nM]	GI50 [14] [nM]	GI50 [15] [nM]	GI50 [16] [nM]	GI50 [17] [µM]	GI50 [18] [nM]	GI50 [19] [nM]	GI50 [20] [nM]	half-life [21] [min]	stability at varying pH [21]	GI50 [22] [nM]	further results
COc1ccc(C2C(c3ccccc3)C(=O)N2c2cc(OC)c(OC)c(OC)c2)cc1O (stereo not drawn) [Compound 4, 4-(3-Hydroxy-4-methoxyphenyl)-3-phenyl-1-(3,4,5-trimethoxyphenyl)-azetidin-2-one]	< 10	< 10	19	< 10	< 10	< 10	< 10	< 10	< 10	18	37	< 10	< 0.01	< 10	< 10	< 10	–	–	–	IC50 [1]: 17.7 nM; effect on levels of apoptosis or G2/M ([2]; 1 nM): not sufficient to affect the levels of apoptosis or G2/M; apoptosis (subG0/G1) ([2]; 10 nM): 35.1%; cells in the G2/M phase ([2]; 10 nM): 36.9%; apoptosis (subG0/G1) ([2]; 50 nM): 31.4%; cells in the G2/M phase ([2]; 50 nM): 37.0%; apoptosis (subG0/G1) ([2]; 100 nM): 28.0%; cells in the G2/M phase ([2]; 100 nM): 39.8%; inhibition at 0.05 µM [3]: 74%; prevention of MDA-MB-231 cell migration [4]: 95.7%
COc1ccc(C2C(c3ccccc3)C(=O)N2c2cc(OC)c(OC)c(OC)c2)cc1 (stereo not drawn) [Compound 8, 4-(4-Methoxy-phenyl)-3-phenyl-1-(3,4,5-trimethoxy-phenyl)-azetidin-2-one]	29.1	263	166	95	67.6	132	405	124	40.5	82.5	412	36.5	6.78	–	56.9	42.5	> 1440	least stable at acidic pH 4 and relatively stable at pH's 7.4 and 9	605	GI50 [23]: > 100 µM
COc1ccc(C2C(c3cccs3)C(=O)N2c2cc(OC)c(OC)c(OC)c2)cc1 (stereo not drawn) [Compound 12, 4-(4-Methoxyphenyl)-3-thiophen-2-yl-1-(3,4,5-trimethoxyphenyl)-azetidin-2-one]	–	< 10	15	37	< 10	< 10	10	14	< 10	13	38	< 10	< 0.01	< 10	< 10	< 10	> 1440	least stable at acidic pH 4 and relatively stable at pH's 7.4 and 9	70	–
